Laboratory results from patent publication US20260023070A1, “OPTOGENETIC ALPHA-SYNUCLEIN AGGREGATION SYSTEM-BASED COMPOUND SCREENING PLATFORM IN PD-hiPSC-mDA NEURONS” (The Johns Hopkins University, priority 2022, published 2026).

Columns and labels:
[1] = test system: human PD iPSC-derived mDA neurons treated with α-syn PFF; test: α-syn PFF model in non-OASIS human PD hiPSC-derived mDA neurons (TX-insoluble pS129-α-syn); format: cell-based; settings: α-syn PFF with compound for 14 days
Experimental: (§1) To validate the effects of these two compounds on the OASIS-independent model, α-syn PFF were treated with mouse primary neurons and non-OASIS-human PD hiPSC-derived mDA neurons with CDC 021 and BAG 956.

[2] = test system: α-syn PFF injected mice; test: In vivo intrastriatal α-syn PFF mouse model, oral BAG 956 (behaviour, histology, biochemistry)
Experimental: To test the neuroprotective potential of BAG 956, in vivo α-syn PFF mouse model was used for a short-term period. […] Next, BAG 956 efficacy was validated for long-term treatment on α-syn PFF mouse model by comprehensive behavioral and biochemical assays. Behavioral analysis was performed to evaluate the behavioral defect elicited by intrastriatal α-syn PFF injection and any restoration of behavioral dysfunction by oral administration of BAG 956 for 6 months at a low (2 mg/kg) or high (10 mg/kg) concentration after one-month recovery from α-syn PFF injection. PBS injected mice were treated vehicle or BAG956^high (10 mg/kg), whereas α-syn PFF injected mice were orally administered with vehicle, BAG 956^low (2 mg/kg), or BAG956^high (10 mg/kg) (FIG. 13A). […] The open field test (OFT) and elevated plus maze (EPM) were performed to evaluate locomotion, exploration, and anxiety behaviors. […] Next, hippocampal- or amygdala-dependent learning and memory based contextual or cued fear conditioning tests were performed. […] To examine whether the oral administration of BAG 956 could rescue the loss of DA neurons induced by intrastriatal α-syn PFF injection, the number of TH-positive neurons in the substantia nigra pars compacta (SNpc) was measured via an unbiased stereological counting analysis.

[3] = test system: PI3K-PDK1/AKT/mTOR signaling pathway; test: PI3K/PDK1 downstream target phosphorylation in ventral midbrain of α-syn PFF-injected mice; format: in vivo, mouse
Source text: (§2) Since PI3K-PDK1/AKT/mTOR signaling pathway plays a critical role in regulation of autophagy, it was investigated the effects of BAG 956 treatments on PFF models. […] Taken together, BAG 956 may act as an autophagy-enhancing drug through inhibition of the PI3K-PDK1/AKT/mTOR signaling pathway (FIG. 18I).

[4] = test system: PI3K-PDK1/AKT/mTOR signaling pathway; test: PI3K/PDK1 downstream target phosphorylation in α-syn PFF-treated PD hiPSC-derived dopaminergic neurons; format: cell-based, human
Source text: as §2

[5] = test system: PI3K-PDK1/AKT/mTOR signaling pathway; test: PI3K/PDK1 downstream target phosphorylation in α-syn PFF-treated mouse primary neurons; format: cell-based
Source text: as §2

[6] = test system: α-syn PFF-treated opto-α-syn-mDA neurons; test: Autophagy markers (western blot) in α-syn PFF-treated mDA neurons; format: cell-based, human; settings: compared with control or CDC 021 treatment
Experimental: Because autophagy can be activated by the inhibition of PI 3-kinase (PI3K) or the PDK1 pathway, it was tested whether treatment with BAG 956 can induce the autophagic flux to decrease α-syn aggregates in opto-α-syn mDA neurons and MOs.

[7] = test system: mouse primary neurons treated with α-syn PFF; test: α-syn PFF model in mouse primary neurons (TX-insoluble pathologic α-syn); format: cell-based
Experimental: as §1

[8] = test system: tau-PFF injected mice; test: tau-PFF injected mice, AT8 immunofluorescence in dentate gyrus; format: in vivo
Experimental: To find in vivo efficacy in a pilot exponential set and set a drug dosage, an in vivo experiment with the tau-PFF injected mice with DMSO or BAG treatment ([…]) was performed. Intraperitoneal injection of different concentrations (0, 5, 10 mg/kg) of BAG was given for one month, once every two days. Immunofluorescence staining results of AT8 in the dentate gyrus of C57bl/6j mice (3 per group) after injection of K18-tau PFF (5 μg/kg) into the hippocampus for two months was performed (data not shown).

[9] = oral, 6 months, both 2 mg/kg and 10 mg/kg

Compound: Cc1nc2cnc3ccc(C#Cc4cccnc4)cc3c2n1-c1ccc(C(C)(C)C#N)cc1 [BAG 956]
- TX-insoluble pS129-α-syn [1]: significant decrease
- pathologic pSer129-α-syn immunoreactivity in TH-positive neurons of the SN (IHC) ([2]; long-term oral, 10 mg/kg): significantly rescued
- number of TH- and Nissl-positive stained DA neurons in SNpc (stereological counting) ([2]; oral, 10 mg/kg): recovered
- protein levels of TH in ventral midbrain and striatum ([2]; oral, 10 mg/kg): rescued
- striatal TH-positive fiber density (IHC) ([2]; oral, 10 mg/kg): rescued
- endpoint body mass ([2]; oral, 6 months, 2 mg/kg or 10 mg/kg, all groups): No endpoint body mass differences
- time spent, number of entries in the far zone of the open arm of the EPM ([2]; oral, 6 months, 10 mg/kg): significantly restored
- time spent, number of entries, travelled distance in the center zone of the OFT ([2]; oral, 6 months, 10 mg/kg): significantly restored
- contextual or cued fear conditioning: total freezing time and freezing episode [2, 9]: recovered
- fore- and hind-limb grip strength [2, 9]: dramatically recovered
- latency to fall from the rotarod test [2, 9]: dramatically recovered
- levels of pS129-α-syn in the TX-insoluble fraction of ventral midbrain (WB) ([2]; oral, both 2 mg/kg and 10 mg/kg): significantly reduced
- pS473-AKT ([3]; α-syn PFF injected mice, normalized to pan-AKT): reduced
- Phosphorylation of PDK1 downstream targets PI3K, AKT, S6K, and mTOR ([3]; α-syn PFF-injected mice, 2 mg/kg or 10 mg/kg): significantly reduced
- Phosphorylation of PDK1 downstream targets PI3K, AKT, S6K, and mTOR [4]: significantly reduced
- Phosphorylation of PDK1 downstream targets PI3K, AKT, S6K, and mTOR [5]: significantly reduced
- level of autophagic marker LC-311 [6]: up-regulated
- level of autophagy flux protein p62 [6]: down-regulated
- pathologic α-syn in the Triton X-100 (TX)-insoluble fraction [7]: significantly reduced
- toxicity ([8]; 10 μg/kg dosage as printed): without noticeable toxicity
- levels of the AT8+ phosphorylated-tau ([8]; intraperitoneal, once every two days for one month, 5 and 10 mg/kg): significantly decreased
